Measured values taken from article PMC6789174 (Drug Design, Development and Therapy, 2019).
≈ marks a conversion by molar mass, not a printed value.

Tests used:
[1] = DPPH free radical scavenging
[2] = ABTS free radical scavenging
Staphylococcus aureus = test: Anti-bacterial activity, agar well diffusion; type: cell-based
Acetylcholinesterase = Acetylcholinesterase (Homo sapiens, UniProt P22303); test: biochemical
porcine α-amylase = target: T1, porcine α-amylase (Sus scrofa, UniProt P00690); test: biochemical
T1 sequence (P00690 16-511): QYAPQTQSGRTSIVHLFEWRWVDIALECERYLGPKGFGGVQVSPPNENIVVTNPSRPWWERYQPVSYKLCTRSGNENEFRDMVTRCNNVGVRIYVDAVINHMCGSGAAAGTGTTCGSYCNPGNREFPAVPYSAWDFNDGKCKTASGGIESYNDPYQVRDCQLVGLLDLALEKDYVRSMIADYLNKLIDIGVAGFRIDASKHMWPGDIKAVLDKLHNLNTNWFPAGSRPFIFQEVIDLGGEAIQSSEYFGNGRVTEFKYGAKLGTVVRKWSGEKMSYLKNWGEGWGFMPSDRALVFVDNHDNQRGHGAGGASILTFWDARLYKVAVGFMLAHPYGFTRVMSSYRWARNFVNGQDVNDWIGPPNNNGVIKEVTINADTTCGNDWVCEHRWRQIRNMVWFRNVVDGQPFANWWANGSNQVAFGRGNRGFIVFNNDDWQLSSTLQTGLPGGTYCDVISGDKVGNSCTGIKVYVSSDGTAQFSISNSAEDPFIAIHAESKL

Butyrylcholinesterase = Butyrylcholinesterase (Homo sapiens, UniProt P06276); test: Anticholinesterase assay; type: biochemical
Chain of Butyrylcholinesterase (P06276 29-602): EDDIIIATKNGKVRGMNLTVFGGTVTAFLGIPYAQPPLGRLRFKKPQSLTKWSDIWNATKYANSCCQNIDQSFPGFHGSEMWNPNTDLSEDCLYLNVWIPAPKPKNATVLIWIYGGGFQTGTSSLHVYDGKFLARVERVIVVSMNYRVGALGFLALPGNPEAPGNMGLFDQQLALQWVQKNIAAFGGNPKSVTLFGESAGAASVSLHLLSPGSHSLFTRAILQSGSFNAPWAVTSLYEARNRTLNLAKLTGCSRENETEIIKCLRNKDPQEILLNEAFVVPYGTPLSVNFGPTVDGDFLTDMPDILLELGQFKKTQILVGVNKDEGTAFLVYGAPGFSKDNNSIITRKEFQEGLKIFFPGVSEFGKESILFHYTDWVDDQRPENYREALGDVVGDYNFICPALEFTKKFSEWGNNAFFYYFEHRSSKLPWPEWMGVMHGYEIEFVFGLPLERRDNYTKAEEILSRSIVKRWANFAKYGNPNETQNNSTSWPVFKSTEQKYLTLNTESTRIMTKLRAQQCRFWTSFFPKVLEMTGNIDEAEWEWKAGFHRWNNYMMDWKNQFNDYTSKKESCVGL

[3] = test system: Agrobacterium tumefaction; test: Anti-bacterial activity, agar well diffusion; type: cell-based
glucose-6-phosphatase = target: T2, glucose-6-phosphatase (Homo sapiens, UniProt P35575); test: Glucose-6-phosphatase activity; type: biochemical; settings: 33°C, pH 6.7, control 72.0
T2 sequence (P35575 1-357): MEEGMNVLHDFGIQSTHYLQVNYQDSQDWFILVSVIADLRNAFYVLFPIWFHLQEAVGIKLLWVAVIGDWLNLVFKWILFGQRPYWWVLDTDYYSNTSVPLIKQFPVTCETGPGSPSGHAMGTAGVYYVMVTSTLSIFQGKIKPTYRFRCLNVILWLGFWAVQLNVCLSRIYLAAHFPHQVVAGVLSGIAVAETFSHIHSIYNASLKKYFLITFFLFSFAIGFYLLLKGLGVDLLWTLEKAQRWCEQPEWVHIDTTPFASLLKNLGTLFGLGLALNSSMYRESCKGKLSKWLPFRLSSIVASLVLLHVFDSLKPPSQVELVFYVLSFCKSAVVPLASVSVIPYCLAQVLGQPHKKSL

α-glucosidase = α-glucosidase (Saccharomyces cerevisiae, UniProt P53341); test: Alpha glucosidase inhibition; type: biochemical; settings: concentration 250 μg/mL
Chain of α-glucosidase (P53341 whole entry, the tested form may be a part): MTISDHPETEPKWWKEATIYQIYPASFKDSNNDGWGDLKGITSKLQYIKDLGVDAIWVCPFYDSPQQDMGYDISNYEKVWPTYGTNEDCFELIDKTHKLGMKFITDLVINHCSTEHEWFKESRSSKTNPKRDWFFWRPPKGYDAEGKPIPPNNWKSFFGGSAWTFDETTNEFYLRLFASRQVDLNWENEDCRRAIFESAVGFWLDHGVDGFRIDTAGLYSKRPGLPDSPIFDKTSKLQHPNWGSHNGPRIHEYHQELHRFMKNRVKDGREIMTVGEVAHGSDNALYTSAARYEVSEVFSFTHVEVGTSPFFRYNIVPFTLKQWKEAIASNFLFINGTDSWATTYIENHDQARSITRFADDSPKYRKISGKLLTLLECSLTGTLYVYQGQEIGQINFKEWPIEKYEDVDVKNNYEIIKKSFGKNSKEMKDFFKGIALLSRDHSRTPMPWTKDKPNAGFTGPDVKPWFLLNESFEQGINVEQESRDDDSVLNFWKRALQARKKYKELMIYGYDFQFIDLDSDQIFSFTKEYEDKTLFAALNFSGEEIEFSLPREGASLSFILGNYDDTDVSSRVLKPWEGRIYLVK

Proteus vulgaris = test: Anti-bacterial activity, agar well diffusion; type: cell-based
[4] = read-out: ZI (Zone of inhibition), Staphylococcus aureus
[5] = read-out: %AChE Inhibition (mean ± SEM)
[6] = read-out: %BChE Inhibition (mean ± SEM)
[7] = read-out: ZI (Zone of inhibition), Agrobacterium tumefaction
[8] = read-out: ZI (Zone of inhibition), Proteus vulgaris

Chain of Acetylcholinesterase (P22303 32-614, species assumed): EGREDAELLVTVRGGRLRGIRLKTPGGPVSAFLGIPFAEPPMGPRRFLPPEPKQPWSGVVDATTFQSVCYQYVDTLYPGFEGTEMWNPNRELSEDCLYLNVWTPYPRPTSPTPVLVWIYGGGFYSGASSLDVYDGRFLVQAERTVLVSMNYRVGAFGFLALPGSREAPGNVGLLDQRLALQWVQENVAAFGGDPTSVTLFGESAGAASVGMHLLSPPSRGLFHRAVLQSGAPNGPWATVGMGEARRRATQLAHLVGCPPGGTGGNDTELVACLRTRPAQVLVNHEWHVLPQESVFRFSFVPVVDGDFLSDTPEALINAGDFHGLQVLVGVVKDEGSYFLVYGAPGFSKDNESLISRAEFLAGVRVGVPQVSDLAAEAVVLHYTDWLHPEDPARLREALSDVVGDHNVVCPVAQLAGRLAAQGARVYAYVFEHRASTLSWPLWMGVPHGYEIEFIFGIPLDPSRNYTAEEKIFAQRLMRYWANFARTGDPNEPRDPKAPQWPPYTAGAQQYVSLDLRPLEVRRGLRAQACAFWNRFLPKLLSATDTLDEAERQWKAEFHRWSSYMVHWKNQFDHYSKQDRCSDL

Cc1ccc(NC(=S)Nc2ccccc2)c(C)c1 [Compound IV, 1-(2,4-dimethylphenyl)-3-phenylthiourea]
DPPH IC50 [1]: 64 µg/mL | DPPH % I (mean ± S.E.M) ([1]; concentration 125 μg/mL): 66.15 ± 1.70% | DPPH % I (mean ± S.E.M) ([1]; concentration 250 μg/mL): 69.31 ± 2.11% | DPPH % I (mean ± S.E.M) ([1]; concentration 500 μg/mL): 74.13 ± 1.51% | DPPH % I (mean ± S.E.M) ([1]; concentration 1000 μg/mL): 79.15 ± 1.23% | ABTS IC50 [2]: 100 µg/mL | ABTS radical scavenging, in words [2]: moderately effective | ABTS % I (mean ± S.E.M) ([2]; concentration 125 μg/mL): 64.81 ± 1.05% | ABTS % I (mean ± S.E.M) ([2]; concentration 250 μg/mL): 70.13± 0.05% | ABTS % I (mean ± S.E.M) ([2]; concentration 500 μg/mL): 74.99 ± 1.51% | ABTS % I (mean ± S.E.M) ([2]; concentration 1000 μg/mL): 78.15 ± 1.21% | MIC (Staphylococcus aureus; read-out: MIC, Staphylococcus aureus): 4.03 µg/mL (≈ 15.7 µM) | zone of inhibition at 10 µg/mL (Staphylococcus aureus; [4]): 21 mm | zone of inhibition at 20 µg/mL (Staphylococcus aureus; [4]): 23 mm | zone of inhibition at 30 µg/mL (Staphylococcus aureus; [4]): 26 mm | IC50 (Acetylcholinesterase): 1960 µM | inhibition at 125 µg/mL (Acetylcholinesterase; [5]): 42 ± 1.01% | inhibition at 250 µg/mL (Acetylcholinesterase; [5]): 45.1 ± 1.83% | inhibition at 500 µg/mL (Acetylcholinesterase; [5]): 50 ± 1.88% | inhibition at 1000 µg/mL (Acetylcholinesterase; [5]): 64 ± 1.7% | IC50 (porcine α-amylase): 242 µM | inhibition at 125 µg/mL (porcine α-amylase; read-out: %Inhibition (mean ± SEM), alpha amylase, concentration 125 µg/mL): 69 ± 1.19% | inhibition at 250 µg/mL (porcine α-amylase; read-out: %Inhibition (mean ± SEM), alpha amylase, concentration 250 µg/mL): 75.63 ± 0.63% | inhibition at 500 µg/mL (porcine α-amylase; read-out: %Inhibition (mean ± SEM), alpha amylase, concentration 500 µg/mL): 79.2 ± 1.09% | inhibition at 1000 µg/mL (porcine α-amylase; read-out: %Inhibition (mean ± SEM), alpha amylase, concentration 1000 µg/mL): 80.1 ± 2.02% | IC50 (Butyrylcholinesterase): 585 µM | inhibition at 125 µg/mL (Butyrylcholinesterase; [6]): 49.8 ± 1.53% | inhibition at 250 µg/mL (Butyrylcholinesterase; [6]): 53.5 ± 1.07% | inhibition at 500 µg/mL (Butyrylcholinesterase; [6]): 60.5 ± 1.61% | inhibition at 1000 µg/mL (Butyrylcholinesterase; [6]): 76.1 ± 1.9% | MIC ([3]; read-out: MIC, Agrobacterium tumefaction): 13.5 µg/mL (≈ 52.6 µM) | zone of inhibition at 10 µg/mL [3, 7]: 14 mm | zone of inhibition at 20 µg/mL [3, 7]: 18 mm | zone of inhibition at 30 µg/mL [3, 7]: 23 mm | Total Activity of glucose-6-phosphatase (glucose-6-phosphatase; concentration 125 µg/mL): 17.70 mg of P released per hour | Total Activity of glucose-6-phosphatase (glucose-6-phosphatase; concentration 250 µg/mL): 13.58 mg of P released per hour | Total Activity of glucose-6-phosphatase (glucose-6-phosphatase; concentration 500 µg/mL): 11.77 mg of P released per hour | %Inhibition (mean ± SEM), alpha glucosidase (α-glucosidase): 55.88 ± 2.04% | MIC (Proteus vulgaris; read-out: MIC, Proteus vulgaris): 11.9 µg/mL (≈ 46.5 µM) | zone of inhibition at 10 µg/mL (Proteus vulgaris; [8]): 14 mm | zone of inhibition at 20 µg/mL (Proteus vulgaris; [8]): 18 mm | zone of inhibition at 30 µg/mL (Proteus vulgaris; [8]): 23 mm
